Assay results: paper PMC4211601, “Defining the conformation of human mincle that interacts with mycobacterial trehalose dimycolate” (Glycobiology, 2014)

Molecular target: T1, human mincle CRD (Homo sapiens, UniProt Q9ULY5)
T1 construct: gene CLEC4E; C-terminal biotinylation tag kept; immobilised on streptavidin plates
T1 sequence (Q9ULY5 74-219): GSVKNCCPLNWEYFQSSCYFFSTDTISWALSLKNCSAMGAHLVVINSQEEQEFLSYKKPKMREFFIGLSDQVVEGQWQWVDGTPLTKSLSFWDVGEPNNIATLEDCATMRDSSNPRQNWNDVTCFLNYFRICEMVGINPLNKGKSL
Test: competition with […]-Man31-BSA on immobilised CRD
Format: binding

Work on `CCCCCC(=O)OC[C@H]1O[C@H](O[C@H]2O[C@H](CO)[C@@H](O)[C@H](O)[C@H]2O)[C@H](O)[C@@H](O)[C@@H]1O` [monohexanoate derivative] yielded a Ki of 184 ± 6 µM.

With `CCCCCC(=O)OC[C@H]1O[C@H](O[C@H]2O[C@H](COC(=O)CCCCC)[C@@H](O)[C@H](O)[C@H]2O)[C@H](O)[C@@H](O)[C@@H]1O` [dihexanoate derivative] the Ki was 12.5 µM.

`CCCCCCCC(=O)OC[C@H]1O[C@H](O[C@H]2O[C@H](CO)[C@@H](O)[C@H](O)[C@H]2O)[C@H](O)[C@@H](O)[C@@H]1O` [monooctanoyl trehalose] gave a Ki of 45 ± 4 µM.
